In PubChem BioAssay (NCI):
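In this assay, cells in 96-well plates receive the compound at five concentrations for 48 hours. Endpoints are linearly interpolated between the surrounding concentrations. At the TGI there is no net growth.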

Columns and labels:
Assay in all cases: NCI tumour cell line growth inhibition, 48 h
DMS 273 small cell lung = test system: DMS 273 small cell lung
MALME-3M melanoma = test system: MALME-3M melanoma
HT29 colon = test system: HT29 colon
UACC-62 melanoma = test system: UACC-62 melanoma
SK-MEL-5 melanoma = test system: SK-MEL-5 melanoma
OVCAR-4 ovarian = test system: OVCAR-4 ovarian
OVCAR-3 ovarian = test system: OVCAR-3 ovarian
SNB-75 CNS = test system: SNB-75 CNS
SK-MEL-28 melanoma = test system: SK-MEL-28 melanoma
SN12C renal = test system: SN12C renal
DMS 114 small cell lung = test system: DMS 114 small cell lung
DLD-1 colon = test system: DLD-1 colon
TK-10 renal = test system: TK-10 renal
NCI-H23 lung = test system: NCI-H23 lung
LOX IMVI melanoma = test system: LOX IMVI melanoma
K-562 leukemia = test system: K-562 leukemia
COLO 205 colon = test system: COLO 205 colon
A498 renal = test system: A498 renal
SNB-19 CNS = test system: SNB-19 CNS
KM20L2 colon = test system: KM20L2 colon
HCT-15 colon = test system: HCT-15 colon
XF 498 CNS = test system: XF 498 CNS
RPMI-8226 leukemia = test system: RPMI-8226 leukemia
U251 CNS = test system: U251 CNS
SF-539 CNS = test system: SF-539 CNS
RXF 393 renal = test system: RXF 393 renal
SF-268 CNS = test system: SF-268 CNS
SK-OV-3 ovarian = test system: SK-OV-3 ovarian
HCC-2998 colon = test system: HCC-2998 colon
HOP-18 NSCLC = test system: HOP-18 NSCLC
CAKI-1 renal = test system: CAKI-1 renal
M14 melanoma = test system: M14 melanoma
CCRF-CEM leukemia = test system: CCRF-CEM leukemia
M19-MEL melanoma = test system: M19-MEL melanoma
SF-295 CNS = test system: SF-295 CNS
NCI-H460 lung = test system: NCI-H460 lung
SK-MEL-2 melanoma = test system: SK-MEL-2 melanoma
LXFL 529 NSCLC = test system: LXFL 529 NSCLC
HL-60(TB) leukemia = test system: HL-60(TB) leukemia
A549 NSCLC = test system: A549 NSCLC
UACC-257 melanoma = test system: UACC-257 melanoma
IGROV1 ovarian = test system: IGROV1 ovarian
MOLT-4 leukemia = test system: MOLT-4 leukemia
KM12 colon = test system: KM12 colon
NCI-H226 lung = test system: NCI-H226 lung
OVCAR-5 ovarian = test system: OVCAR-5 ovarian
HCT-116 colon = test system: HCT-116 colon
OVCAR-8 ovarian = test system: OVCAR-8 ovarian
SNB-78 CNS = test system: SNB-78 CNS
EKVX NSCLC = test system: EKVX NSCLC
786-0 renal = test system: 786-0 renal
SW-620 colon = test system: SW-620 colon
UO-31 renal = test system: UO-31 renal
ACHN renal = test system: ACHN renal

Measured: TGI

COc1ccc(C(=O)C/C(=N/NC(N)=S)C(=O)Nc2ccccc2)cc1
> 100 µM: all assays above
